Results published in patent US12077503B2, “Substituted cyclic amides and their use as herbicides” (FMC CORPORATION, priority 2015, dated 2024).

How the values were obtained:
Assay type in all cases: in vivo
[1] = system: blackgrass (Alopecurus myosuroides); assay: Test A postemergence; details: Alopecurus myosuroides, post-emergence, 240 h, postemergence, read-out: Blackgrass plant response rating
How it was run: (§1)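 Greenhouse, ~10 d after spray; visual injury vs untreated controls, 0 = no effect, 100 = complete control. Preemergence: directed soil spray over planted seeds. Postemergence: plants 2–10 cm, 1–2 leaf stage. Loam/sand blend. Compound in non-phytotoxic solvent with surfactant.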

[2] = system: wheat (Triticum aestivum); assay: Test A postemergence; details: Triticum aestivum, post-emergence, 240 h, postemergence, read-out: Wheat plant response rating
How it was run: as §1

[3] = system: barnyardgrass (Echinochloa crus-galli); assay: Test A postemergence; details: Echinochloa crus-galli, post-emergence, 240 h, postemergence, read-out: Barnyardgrass plant response rating
How it was run: as §1

[4] = system: pigweed (Amaranthus retroflexus); assay: Test A postemergence; details: Amaranthus retroflexus, post-emergence, 240 h, postemergence, read-out: Pigweed plant response rating
How it was run: as §1

[5] = system: Galium (catchweed bedstraw, Galium aparine); assay: Test A postemergence; details: Galium, post-emergence, 240 h, postemergence, read-out: Galium plant response rating
How it was run: as §1

[6] = system: ryegrass, Italian (Italian ryegrass, Lolium multiflorum); assay: Test A postemergence; details: Lolium multiflorum, post-emergence, 240 h, postemergence, read-out: Ryegrass, Italian plant response rating
How it was run: as §1

corn (Zea mays) = assay: Test A postemergence; details: Zea mays, post-emergence, 240 h, postemergence, read-out: Corn plant response rating
How it was run: as §1

[7] = system: giant foxtail (Setaria faberii); assay: Test A postemergence; details: Setaria faberi, post-emergence, 240 h, postemergence, read-out: Foxtail, Giant plant response rating
How it was run: as §1

[8] = system: ragweed (common ragweed, Ambrosia elatior); assay: Test A postemergence; details: Ambrosia artemisiifolia, post-emergence, 240 h, postemergence, read-out: Ragweed plant response rating
How it was run: as §1

[9] = system: barnyardgrass (Echinochloa crus-galli); assay: Test A preemergence; details: Echinochloa crus-galli, pre-emergence, 240 h, preemergence, 0 to 100 scale where 0 is no effect and 100 is complete control, read-out: Barnyardgrass plant response rating
How it was run: as §1

[10] = system: pigweed (Amaranthus retroflexus); assay: Test A preemergence; details: Amaranthus retroflexus, pre-emergence, 240 h, preemergence, 0 to 100 scale where 0 is no effect and 100 is complete control, read-out: Pigweed plant response rating
Kochia (Kochia scoparia) = assay: Test A preemergence; details: Bassia scoparia, pre-emergence, 240 h, preemergence, 0 to 100 scale where 0 is no effect and 100 is complete control, read-out: Kochia plant response rating
How it was run: as §1

[11] = system: ryegrass, Italian (Italian ryegrass, Lolium multiflorum); assay: Test A preemergence; details: Lolium multiflorum, pre-emergence, 240 h, preemergence, 0 to 100 scale where 0 is no effect and 100 is complete control, read-out: Ryegrass, Italian plant response rating
How it was run: as §1

[12] = system: giant foxtail (Setaria faberii); assay: Test A preemergence; details: Setaria faberi, pre-emergence, 240 h, preemergence, 0 to 100 scale where 0 is no effect and 100 is complete control, read-out: Foxtail, Giant plant response rating
How it was run: as §1

[13] = system: ragweed (common ragweed, Ambrosia elatior); assay: Test A preemergence; details: Ambrosia artemisiifolia, pre-emergence, 240 h, preemergence, 0 to 100 scale where 0 is no effect and 100 is complete control, read-out: Ragweed plant response rating
How it was run: as §1

[14] = 125 g ai/ha, visual injury on 0 to 100 scale (0 no effect, 100 complete control), approx. 10 d
[15] = 500 g ai/ha, 0 to 100 scale, 0 is no effect, 100 is complete control

CN1CC(c2cccc(O)c2)C(C(=O)Nc2cccc(F)c2F)C1=O (stereo not drawn) [Compound 1130]
20%: pest or weed control at 500 g/ha [3, 15]
30%: pest or weed control at 500 g/ha [7, 15] | pest or weed control at 500 g/ha ([12]; 500 g ai/ha)
0%: pest or weed control at 125 g/ha [1, 14] | pest or weed control at 500 g/ha [1, 15] | plant injury at 125 g/ha [2, 14] | plant injury at 500 g/ha [2, 15] | pest or weed control at 125 g/ha [3, 14] | pest or weed control at 125 g/ha [4, 14] | pest or weed control at 500 g/ha [4, 15] | pest or weed control at 125 g/ha [5, 14] | pest or weed control at 500 g/ha [5, 15] | pest or weed control at 125 g/ha [6, 14] | pest or weed control at 500 g/ha [6, 15] | plant injury at 125 g/ha (corn (Zea mays); [14]) | plant injury at 500 g/ha (corn (Zea mays); [15]) | pest or weed control at 125 g/ha [7, 14] | pest or weed control at 125 g/ha [8, 14] | pest or weed control at 500 g/ha [8, 15] | pest or weed control at 125 g/ha ([9]; 125 g ai/ha, approx. 10 d) | pest or weed control at 500 g/ha ([9]; 500 g ai/ha) | pest or weed control at 125 g/ha ([10]; 125 g ai/ha, approx. 10 d) | pest or weed control at 500 g/ha ([10]; 500 g ai/ha) | pest or weed control at 125 g/ha (Kochia (Kochia scoparia); 125 g ai/ha, approx. 10 d) | pest or weed control at 500 g/ha (Kochia (Kochia scoparia); 500 g ai/ha) | pest or weed control at 125 g/ha ([11]; 125 g ai/ha, approx. 10 d) | pest or weed control at 500 g/ha ([11]; 500 g ai/ha) | pest or weed control at 125 g/ha ([12]; 125 g ai/ha, approx. 10 d) | pest or weed control at 125 g/ha ([13]; 125 g ai/ha, approx. 10 d) | pest or weed control at 500 g/ha ([13]; 500 g ai/ha)
